Measurements as given in patent publication US12629398B2, “Method of alleviating obsessive compulsive disorder symptoms by use of a multi-strain probiotic formulation” (Unique Biotech Limited, priority 2024, dated 2026).
Entries after “also recorded” stand apart in the source; their conditions may differ. Counter-ions that a name gives are not always drawn.

Tests used:
quinpirole-injected rats [1] = experiment: Elevated plus maze (EPM) test, anxiety-like behavior, quinpirole OCD model; type: in vivo, Wistar rats; conditions: fluoxetine 10 mg/kg peroral 6 weeks with quinpirole
From the text: (§1) Experimental design was as given in Ref 12, incorporated herein in its entirety. The rats were randomly distributed into 5 different groups, with 6-8 rats per group (FIG. 1). Group 1, referred to as the “Vehicle” group, received the vehicle for a duration of 8 weeks. Group 2, denoted as the “Probiotic” group, received the peroral (PO) multistrain probiotic at a dose of 1× 10^10 CFU per rat for 8 weeks.

quinpirole-injected rats [2] = experiment: Marble burying test, quinpirole OCD model; type: in vivo, Wistar rats; conditions: 10 min; quinpirole vs. control; quinpirole effect among rats that received probiotic or fluoxetine
From the text: as §1

quinpirole-injected rats [3] = experiment: Self-grooming test, quinpirole OCD model; type: in vivo, Wistar rats; conditions: 10 min; quinpirole vs. vehicle; treatments vs. quinpirole group
From the text: as §1

quinpirole-injected rats [4] = experiment: Hole board test, quinpirole OCD model; type: in vivo, Wistar rats; conditions: 5-minute session; quinpirole vs. vehicle; treatments in quinpirole rats
From the text: as §1

nNOS = experiment: Western blot analysis of nNOS in the frontal cortex; type: in vivo, rat; conditions: quinpirole vs. vehicle, treatments vs. quinpirole group
From the text: as §1
Radioimmunoprecipitation Assay (RIPA) buffer was used to homogenize the frontal cortex part of the rat brain and then resolved using sodium dodecyl sulfate-polyacrylamide gel electrophoresis (SDS-PAGE). The proteins were then transferred to a nitrocellulose membrane, blocked with 5% bovine serum albumin, and incubated with the primary antibody anti-NOS1 (sc-5302, 1:1000 dilution) overnight at 4° C., followed by incubation with horseradish peroxidase-conjugate secondary antibody at RT. The required proteins were then detected by using an ECL solution.

TNF-α = experiment: Real-time PCR of cytokine mRNA in the amygdala: TNF-α; type: in vivo, rat; conditions: quinpirole vs. vehicle, treatments vs. quinpirole group
Method: as §1
(§2) RT-PCR was performed to analyze the impact of a multistrain probiotic on cytokines mRNA expression (Ref 20, Rahman et al). Briefly, NucleoSpin® RNA isolation kit (#740955.50, DSS Takara Bio India Private Ltd) was used to extract RNA from the rat brain's amygdala. PrimeScript™ 1st strand cDNA synthesis kit (#6110A, DSS Takara Bio India Private Ltd) was used to process these RNA samples to cDNA. The 10 μL reaction mixture was prepared by mixing 5 μL of SYBR Green, 2 μL of the PCR primer (1 μL reverse+1 μL forward) (GCC Biotech, India, Private Ltd.). 1 μL of diluted cDNA template and 2 μL nuclease-free water. For each PCR test, the threshold cycle numbers were averaged across all samples. Using Δ/Δ Ct technique, the relative mRNA expression was calculated. The primers were designed (Table 6) using the software tools NCBI BLAST.

IL-6 = experiment: Real-time PCR of cytokine mRNA in the amygdala: IL-6; type: in vivo, rat; conditions: quinpirole vs. vehicle, treatments vs. quinpirole group
Method: as §1, §2

CRP = experiment: Real-time PCR of cytokine mRNA in the amygdala: CRP; type: in vivo, rat; conditions: quinpirole vs. vehicle, treatments vs. quinpirole group
Method: as §1, §2

SCFAs = experiment: Short-chain fatty acids (SCFAs) in fecal samples by GC-FID; type: in vivo, rat; conditions: treatments given in quinpirole rats, compared to OCD, unit from Table 7
From the text: as §1
The gas chromatography-flame ionization detection (GC-FID) was used to evaluate the effect of OCD on bacterial metabolites as described earlier in our publications (Ref 22, Rahman et al & Ref 23, Satti et al). Briefly, supernatant acidified with HCL (5 M) and then extracted in diethyl ether to estimate the SCFAs. The acetate, propionate, and butyrate levels were estimated by loading the known amount of each SCFA.

colon = experiment: Colon histopathology (H&E and alcian blue-PAS staining); type: in vivo, rat; conditions: quinpirole vs. control, treatments vs. quinpirole-recipient rats
Method: as §1
To examine the gut permeability, H&E and alcian-blue PAS staining were performed. The method is already described in our publications (Ref 20, 21, and 22), incorporated herein in its entirety. Briefly, sections were processed for deparaffinization with xylene, rehydration with alcohol, and then stained with H&E and alcian blue-PAS agents. Finally, slides were mounted with (DPX) followed by observations under a microscope (Leica-ICC50 W).

| SMILES | open-arms activity (quinpirole-injected rats [1]) | number of marbles buried (increase by quinpirole) (quinpirole-injected rats [2]) | self-grooming activity (number of grooming episodes, score) (quinpirole-injected rats [3]) | head dipping activity (quinpirole-injected rats [4]) | expression of nNOS (nNOS) | mRNA expression of TNF-α (TNF-α) | mRNA expression of IL-6 (IL-6) | mRNA expression of CRP (CRP) | butyrate level (SCFAs) [µg/mL] | propionate level (SCFAs) [µg/mL] | number of mature goblet cells (colon) | villus height/crypt depth ratio (colon) |
| --- | --- | --- | --- | --- | --- | --- | --- | --- | --- | --- | --- | --- |
| CNCCC(Oc1ccc(C(F)(F)F)cc1)c1ccccc1 (stereo not shown) [Fluoxetine, fluoxetine] | improved | nonsignificant | did not notice any change | less response | significantly reduced; also recorded: decreased | prevents | prevents | prevents | 3.39 ± 0.32 | 2.99 ± 0.55 | significantly increased | significantly increased |
| CCCN1CCC[C@@H]2Cc3n[nH]cc3C[C@H]21 [Quinpirole, (−)-Quinpirole hydrochloride] |  |  |  |  |  |  |  | significant increase |  |  |  |  |
